Measurements taken from patent US20240180880A1, “METHODS OF USING EHMT2 INHIBITORS IN TREATING OR PREVENTING BLOOD DISORDERS” (Epizyme, Inc., priority 2017, published 2024).
Like-named read-outs stand apart in the source and are kept apart here.

System: 284 cell lines
Test: cells
Details: Homo sapiens
Description: A screen of 284 cell lines to assess the antiproliferative effect of EHMT2 inhibition was conducted by treating cell lines in 384-well format with a half-log step dilutions of Compound 205 over 10 concentrations with a maximum concentration of 0.1% v/v DMSO. Cells were plated on Day 0 and treated with compound on Day 1. Culture medium was replaced on day 7 and cells redosed. After 10-day incubation, cells were fixed and stained with nuclear dye. Automated fluorescence microscopy was carried out using a Molecular Devices ImageXpress Micro XL high-content imager, and images were collected with a 4× objective. 16-bit TIFF images were acquired and analyzed with MetaXpress 5.1.0.41 software. Cell proliferation was measured by the fluorescence intensity of the incorporated nuclear dye. Cell count IC50 is the test compound concentration at 50% of maximal response of the untreated control.

Q: CNc1cc(C)nc(Nc2ccc(OC)c(OCCCN3CCCC3)c2)n1 [Compound 205] was tested. Which IC50 (NCI-H508, read-out: Cell Count IC50, NCI-H508, Colon) did it give?
A: > 10 µM

Q: What about the IC50 (NCI-H520, read-out: Cell Count IC50, NCI-H520, Lung, NSCLC) of the same molecule?
A: > 10 µM

Q: And the IC50 (NCI-H596, read-out: Cell Count IC50, NCI-H596, Lung, NSCLC)?
A: > 10 µM

Q: And the IC50 (NCI-H661, read-out: Cell Count IC50, NCI-H661, Lung, NSCLC)?
A: 0.1 to 1 µM

Q: What about the IC50 (NCI-H747, read-out: Cell Count IC50, NCI-H747, Colon) of the same molecule?
A: 1 to 10 µM

Q: What about the IC50 (NTERA-2-cl-D1, read-out: Cell Count IC50, NTERA-2 cl.D1, Testis) of the same molecule?
A: 1 to 10 µM

Q: And the IC50 (OE19, read-out: Cell Count IC50, OE19, Head and Neck)?
A: > 10 µM

Q: What about the IC50 (OE33, read-out: Cell Count IC50, OE33, Head and Neck) of the same molecule?
A: > 10 µM

Q: What about the IC50 (OVCAR-3, read-out: Cell Count IC50, OVCAR3, Female GU, Ovary) of the same molecule?
A: > 10 µM

Q: And the IC50 (PANC-1, read-out: Cell Count IC50, PANC-1, Pancreas)?
A: 1 to 10 µM

Q: What about the IC50 (PFSK-1, read-out: Cell Count IC50, PFSK-1, Central Nervous System, Glioma) of the same molecule?
A: > 10 µM

Q: What about the IC50 (PSN1, read-out: Cell Count IC50, PSN-1, Pancreas) of the same molecule?
A: 1 to 10 µM

Q: What about the IC50 (RKOE6, read-out: Cell Count IC50, RKOE6, Colon) of the same molecule?
A: 1 to 10 µM

Q: And the IC50 (RL95-2, read-out: Cell Count IC50, RL95-2, Female GU, Uterus)?
A: > 10 µM

Q: What about the IC50 (RPMI-6666, read-out: Cell Count IC50, RPMI 6666, Hematopoietic, Lymphoma) of the same molecule?
A: 0.1 to 1 µM

Q: What about the IC50 (RPMI-7951, read-out: Cell Count IC50, RPMI-7951, Skin, Melanoma) of the same molecule?
A: 1 to 10 µM

Q: What about the IC50 (RPMI-8226, read-out: Cell Count IC50, RPMI 8226, Hematopoietic, Myeloma) of the same molecule?
A: 1 to 10 µM

Q: What about the IC50 (RS4-11, read-out: Cell Count IC50, RS4;11, Hematopoietic, Leukemia) of the same molecule?
A: 1 to 10 µM

Q: And the IC50 (Raji, read-out: Cell Count IC50, Raji, Hematopoietic, Lymphoma)?
A: > 10 µM

Q: And the IC50 (Ramos, read-out: Cell Count IC50, Ramos (RA 1), Hematopoietic, Lymphoma)?
A: 1 to 10 µM

Q: What about the IC50 (SAOS-2, read-out: Cell Count IC50, SaOS2, Bone, Osteosarcoma) of the same molecule?
A: 0.1 to 1 µM

Q: What about the IC50 (SCC-4, read-out: Cell Count IC50, SCC-4, Head and Neck) of the same molecule?
A: > 10 µM

Q: What about the IC50 (SCC-9, read-out: Cell Count IC50, SCC-9, Head and Neck) of the same molecule?
A: < 0.01 µM

Q: And the IC50 (SCC-25, read-out: Cell Count IC50, SCC-25, Head and Neck)?
A: < 0.01 µM

Q: And the IC50 (SCaBER, read-out: Cell Count IC50, SCaBER, Bladder)?
A: 1 to 10 µM

Q: What about the IC50 (SHP77, read-out: Cell Count IC50, SHP-77, Lung, SCLC) of the same molecule?
A: > 10 µM

Q: What about the IC50 (SJRH30, read-out: Cell Count IC50, SJRH30, Soft & Connective Tissue, Sarcoma) of the same molecule?
A: 1 to 10 µM

Q: And the IC50 (SJSA-1, read-out: Cell Count IC50, SJSA1, Bone, Osteosarcoma)?
A: 1 to 10 µM

Q: What about the IC50 (SK-BR-3, read-out: Cell Count IC50, SK-BR-3, Breast) of the same molecule?
A: 1 to 10 µM

Q: What about the IC50 (SK-LMS-1, read-out: Cell Count IC50, SK-LMS-1, Soft & Connective Tissue, Sarcoma) of the same molecule?
A: > 10 µM

Q: And the IC50 (SK-MEL3, read-out: Cell Count IC50, SK-MEL-3, Skin, Melanoma)?
A: 1 to 10 µM

Q: What about the IC50 (SK-MEL-1, read-out: Cell Count IC50, SK-MEL-1, Skin, Melanoma) of the same molecule?
A: 1 to 10 µM

Q: What about the IC50 (SK-MEL-28, read-out: Cell Count IC50, SK-MEL-28, Skin, Melanoma) of the same molecule?
A: 1 to 10 µM

Q: What about the IC50 (SK-MES-1, read-out: Cell Count IC50, SKMES1, Lung, NSCLC) of the same molecule?
A: 1 to 10 µM

Q: And the IC50 (SK-N-AS, read-out: Cell Count IC50, SK-N-AS, Central Nervous System, Neuroblastoma)?
A: 1 to 10 µM

Q: And the IC50 (SK-N-FI, read-out: Cell Count IC50, SK-N-FI, Central Nervous System, Neuroblastoma)?
A: > 10 µM

Q: And the IC50 (SK-NEP-1, read-out: Cell Count IC50, SK-NEP-1, Kidney)?
A: > 10 µM

Q: And the IC50 (SK-OV-3, read-out: Cell Count IC50, SKOV3, Female GU, Ovary)?
A: > 10 µM

Q: And the IC50 (SK-UT-1, read-out: Cell Count IC50, SK-UT-1, Soft & Connective Tissue, Sarcoma)?
A: > 10 µM

Q: And the IC50 (SNB-19, read-out: Cell Count IC50, SNB-19, Central Nervous System, Glioma)?
A: 1 to 10 µM

Q: What about the IC50 (SNU1, read-out: Cell Count IC50, SNU-1, Stomach) of the same molecule?
A: > 10 µM

Q: And the IC50 (SNU-5, read-out: Cell Count IC50, SNU-5, Stomach)?
A: 1 to 10 µM

Q: And the IC50 (SNU-16, read-out: Cell Count IC50, SNU-16, Stomach)?
A: 1 to 10 µM

Q: What about the IC50 (SNU-423, read-out: Cell Count IC50, SNU-423, Liver) of the same molecule?
A: 1 to 10 µM

Q: And the IC50 (SNU-C2B, read-out: Cell Count IC50, SNU-C2B, Colon)?
A: 1 to 10 µM

Q: And the IC50 (ST486, read-out: Cell Count IC50, ST486, Hematopoietic, Lymphoma)?
A: 1 to 10 µM

Q: And the IC50 (SU-DHL10, read-out: Cell Count IC50, SU-DHL-10, Hematopoietic, Lymphoma)?
A: 1 to 10 µM

Q: What about the IC50 (SU-DHL-4, read-out: Cell Count IC50, SU-DHL-4, Hematopoietic, Lymphoma) of the same molecule?
A: 0.1 to 1 µM

Q: And the IC50 (SU-DHL-8, read-out: Cell Count IC50, SU-DHL-8, Hematopoietic, Lymphoma)?
A: 1 to 10 µM

Q: What about the IC50 (SU.86.86, read-out: Cell Count IC50, SU.86.86, Pancreas) of the same molecule?
A: > 10 µM

Q: What about the IC50 (SUP-T1, read-out: Cell Count IC50, SUP-T1, Hematopoietic, Lymphoma) of the same molecule?
A: 1 to 10 µM

Q: What about the IC50 (SW13, read-out: Cell Count IC50, SW-13, Endocrine, Adrenal gland) of the same molecule?
A: > 10 µM

Q: What about the IC50 (SW48, read-out: Cell Count IC50, SW48, Colon) of the same molecule?
A: 1 to 10 µM

Q: What about the IC50 (SW480, read-out: Cell Count IC50, SW480, Colon) of the same molecule?
A: 1 to 10 µM

Q: What about the IC50 (SW684, read-out: Cell Count IC50, SW684, Soft & Connective Tissue, Sarcoma) of the same molecule?
A: 0.1 to 1 µM

Q: And the IC50 (SW837, read-out: Cell Count IC50, SW837, Colon)?
A: 1 to 10 µM

Q: What about the IC50 (SW872, read-out: Cell Count IC50, SW872, Soft & Connective Tissue, Sarcoma) of the same molecule?
A: 1 to 10 µM

Q: What about the IC50 (SW900, read-out: Cell Count IC50, SW900, Lung, SCLC) of the same molecule?
A: 1 to 10 µM

Q: And the IC50 (SW948, read-out: Cell Count IC50, SW948, Colon)?
A: > 10 µM

Q: And the IC50 (SW 954, read-out: Cell Count IC50, SW954, Female GU, Vulva)?
A: > 10 µM

Q: And the IC50 (SW 962, read-out: Cell Count IC50, SW962, Female GU, Vulva)?
A: > 10 µM

Q: What about the IC50 (SW982, read-out: Cell Count IC50, SW982, Soft & Connective Tissue, Sarcoma) of the same molecule?
A: > 10 µM

Q: What about the IC50 (SW1088, read-out: Cell Count IC50, SW1088, Central Nervous System, Glioma) of the same molecule?
A: 1 to 10 µM

Q: And the IC50 (SW1353, read-out: Cell Count IC50, SW1353, Bone, Osteosarcoma)?
A: > 10 µM

Q: What about the IC50 (SW1417, read-out: Cell Count IC50, SW1417, Colon) of the same molecule?
A: 1 to 10 µM

Q: What about the IC50 (SW1463, read-out: Cell Count IC50, SW1463, Colon) of the same molecule?
A: 0.1 to 1 µM

Q: What about the IC50 (SW1783, read-out: Cell Count IC50, SW1783, Central Nervous System, Glioma) of the same molecule?
A: 1 to 10 µM

Q: And the IC50 (SW-403, read-out: Cell Count IC50, SW403, Colon)?
A: 1 to 10 µM

Q: What about the IC50 (SW-620, read-out: Cell Count IC50, SW620, Colon) of the same molecule?
A: 1 to 10 µM

Q: And the IC50 (SiHa, read-out: Cell Count IC50, SiHa, Female GU, Cervix)?
A: 1 to 10 µM

Q: What about the IC50 (T47D, read-out: Cell Count IC50, T47D, Breast) of the same molecule?
A: > 10 µM
